The target of one assay is T1, bacterial DHFR (bDHFR) (Escherichia coli, UniProt P0ABQ4).
T1 construct: gift of Eric Brown, McMaster University
In words: DHFR enzyme assay, Ki determination, bacterial DHFR. Format: biochemical, E. coli. Here is the method: Human and Bacterial DHFR: E. coli DHFR was kindly provided by Eric Brown of MacMaster University.
Dihydrofolic acid and NADPH were purchased from Sigma. Enzyme assays were adapted for microtitre format from a previously published procedure (2, 3). All assays were performed in a 250 μl volume in 96-well microtitre plates. Typical assays consisted of 20 nM DHFR (human or E. coli), 100 μM NADPH, and 50 μM dihydrofolic acid in 100 mM HEPES pH 8, 10 mM KCl, and 10 mM MgCl2. The assay was monitored spectrophotometrically for the conversion of NADPH to NADP+, which results in a decrease in absorbance at 340 nm.
The reaction was initiated by the addition of 125 μl of 100 μM dihydrofolic acid. The final concentrations in the assay were 20 nM DHFR, 100 μM NADPH, 50 μM dihydrofolic acid, and a range of 500 μM to 20 nM inhibitor compound. The final DMSO concentration was 2% of the total volume. Reactions were monitored as described above.

The next assay relates to S. aureus. The assay is described as follows: Microdilution antimicrobial susceptibility test (MIC). Format: cell-based. Conditions: Staphylococcus aureus; MIC, average; read-out: S. aureus (μg/ml) avg. Here is the method:
Stock solutions of tested compounds were prepared in N,N-dimethylformamide (DMF) at a concentration of 5 mg/mL. Working solutions of the tested compounds were then prepared from the stock solutions, in Mueller-Hinton broth (MHB) with a starting concentration of 64 μg/mL.
Bacterial inocula were prepared from overnight culture (i.e., one fresh colony from agar plate in 5 ml MHB; H. influenzae was grown in MHB with the addition of yeast extract, haematin, and NAD), centrifuged 2×5 min/3000 rpm (for S. pneumoniae and H. influenzae, 2×10 min/3000 rpm), and dispensed in 5 ml of fresh MHB each time, such that the bacterial suspension is diluted to obtain 100 colony forming units (cfu) in a microplate well (100 μl total volume).
Microplate wells were filled with two-fold dilutions of test compound (50 μl), starting with 64 μg/ml. Wells were then filled with 50 μl of bacterial inoculum (final volume: 100 μl/well). The plates were incubated at 37° C. for 18-24 hours (S. pneumoniae was grown in a CO2-enriched atmosphere).
On the technique in general: Broth dilution looks for growth in wells or tubes with falling amounts of substance.

Where [1] appears, read: average, read-out: bDHFR Ki/(μM) avg.
The mark [2] stands for this setting: second part of table, read-out: bDHFR.

In brackets after ≈: the same amount, converted by molar mass. Where two headings read alike, the source gives them in different places.

Regarding `Cc1ccc([C@@H](C)N(CC2CC2)c2ncc3c(N)nc(N)nc3n2)c2ccccc12` [Compound 54], the Ki at bacterial DHFR (bDHFR) (setting [1]) worked out at 0.01 µM. The MIC with S. aureus turned out to be 2 µg/mL (≈ 5.01 µM).

In the case of `CCc1ccc2ccc(C(C)N(CC3CC3)c3ncc4c(N)nc(N)nc4n3)cc2c1` (centres unmarked) [Compound 53], the Ki at bacterial DHFR (bDHFR) (setting [1]) amounted to 0.03 µM. For the same molecule, the MIC in the assay on S. aureus is 2 µg/mL (≈ 4.84 µM).

Consider `CC(c1cccc2ccccc12)N(CCc1cccc(F)c1)c1ncc2c(N)nc(N)nc2n1` (centres unmarked) [Compound 47], for which the Ki at bacterial DHFR (bDHFR) (setting [1]) came to 0.023 µM. In addition, the MIC in the assay on S. aureus was 2 µg/mL (≈ 4.41 µM).

Take `CCOc1ccc2ccccc2c1CN(C)c1ncc2c(N)nc(N)nc2n1` [Compound 29]: the Ki was 0.02 µM at bacterial DHFR (bDHFR) (setting [1]) and below 0.02 µM on bacterial DHFR (bDHFR) (setting [2]). The MIC with S. aureus is below 0.125 µg/mL.

`CCC(c1ccc(F)c2ccccc12)N(C)c1ncc2c(N)nc(N)nc2n1` (centres unmarked) [Compound 40]: the Ki at bacterial DHFR (bDHFR) (setting [1]) was determined as 0.004 µM. Also, the MIC in the assay with S. aureus is below 0.125 µg/mL.

Regarding `CCC(c1cccc2ccccc12)N(C)c1ncc2c(N)nc(N)nc2n1` (centres unmarked) [Compound 33], the Ki at bacterial DHFR (bDHFR) (bDHFR Ki/(μM) avg, average) is 0.012 µM; on bacterial DHFR (bDHFR) (setting [2]), 0.012 µM. For the same molecule, the MIC in the assay on S. aureus was found to be 0.015 µg/mL (≈ 0.0417 µM).

Take `Cc1ccc(C(C)N(CC2CC2)c2ncc3c(N)nc(N)nc3n2)c2ccccc12` (centres unmarked) [Compound 52]: on bacterial DHFR (bDHFR) (setting [1]), the Ki was 0.022 µM. For the same molecule, the MIC in the assay on S. aureus worked out at 2 µg/mL (≈ 5.01 µM).

With `CC(c1cccc2ccccc12)N(C)c1ncc2c(N)nc(N)nc2n1` (centres unmarked) [Compound 24], the Ki at bacterial DHFR (bDHFR) (setting [1]) is 0.015 µM. Moreover, in the assay on S. aureus, the MIC turned out to be 0.25 µg/mL (≈ 0.724 µM).

With `CCCC(c1cccc2ccccc12)N(C)c1ncc2c(N)nc(N)nc2n1` (centres unmarked) [Compound 43], the Ki on bacterial DHFR (bDHFR) (setting [1]) was determined as 0.004 µM. The MIC in the assay with S. aureus was below 0.125 µg/mL.

On to `CN(Cc1cnc2nc(N)nc(N)c2n1)c1cccc([N+](=O)[O-])c1` [Compound 21], for which the Ki on bacterial DHFR (bDHFR) (setting [1]) and on bacterial DHFR (bDHFR) (setting [2]) was 0.082 µM each time. Further, the MIC in the assay on S. aureus is below 0.125 µg/mL.

For `CC(c1ccc(Cl)c2ccccc12)N(C)c1ncc2c(N)nc(N)nc2n1` (centres unmarked) [Compound 30], the Ki on bacterial DHFR (bDHFR) (setting [1]) was 0.028 µM; on bacterial DHFR (bDHFR) (setting [2]) it was 0.024 µM. Also, the MIC with S. aureus is below 0.125 µg/mL.

In the case of `CC(c1cccc2ccccc12)N(CCc1ccccc1)c1ncc2c(N)nc(N)nc2n1` (centres unmarked) [Compound 26], the Ki at bacterial DHFR (bDHFR) (setting [1]) was 0.02 µM. In the assay with S. aureus, the MIC turned out to be 1 µg/mL (≈ 2.3 µM).

Consider `CCc1ccc2ccccc2c1C(C)N(C)c1ncc2c(N)nc(N)nc2n1` (centres unmarked) [Compound 56], for which the Ki on bacterial DHFR (bDHFR) (setting [1]) worked out at 0.093 µM. Also, the MIC with S. aureus worked out at 2 µg/mL (≈ 5.36 µM).

For `CC(c1cccc2ccccc12)N(CCCCO)c1ncc2c(N)nc(N)nc2n1` (centres unmarked) [Compound 58], the Ki at bacterial DHFR (bDHFR) (setting [1]) came out at 0.015 µM. Moreover, in the assay on S. aureus, the MIC was 2 µg/mL (≈ 4.96 µM).

On to `CC[C@H](c1cccc2ccccc12)N(C)c1ncc2c(N)nc(N)nc2n1` [Compound 42], for which the Ki at bacterial DHFR (bDHFR) (setting [1]) was found to be 0.004 µM. Also, in the assay on S. aureus, the MIC is below 0.125 µg/mL.

As to `Nc1nc(N)c2nc(CNc3ccc(Cl)c4ccccc34)cnc2n1` [Compound 63], the Ki at bacterial DHFR (bDHFR) (setting [2]) was 0.104 µM.

As to `C=CCN(Cc1cnc2nc(N)nc(N)c2n1)c1ccccc1` [Compound 46], the Ki at bacterial DHFR (bDHFR) (setting [1]) was 0.093 µM. Besides, in the assay with S. aureus, the MIC was 2 µg/mL (≈ 6.51 µM).

Regarding `CC(c1ccc(Cl)c2ccccc12)N(CC1CC1)c1ncc2c(N)nc(N)nc2n1` (centres unmarked) [Compound 55], at bacterial DHFR (bDHFR) (setting [1]), the Ki came out at 0.019 µM. Also, in the assay with S. aureus, the MIC was 2 µg/mL (≈ 4.76 µM).

Turning to `Cc1[nH]ncc1CCCN(c1ncc2c(N)nc(N)nc2n1)C(C)c1cccc2ccccc12` (centres unmarked) [Compound 51], the Ki on bacterial DHFR (bDHFR) (setting [1]) worked out at 0.022 µM. Further, the MIC with S. aureus came out at 2 µg/mL (≈ 4.41 µM).

Regarding `CCCOCCN(c1ncc2c(N)nc(N)nc2n1)C(C)c1cccc2ccccc12` (centres unmarked) [Compound 49], the Ki at bacterial DHFR (bDHFR) (setting [1]) is 0.02 µM. In addition, the MIC in the assay on S. aureus was found to be 2 µg/mL (≈ 4.79 µM).

For the molecule `CCCN(Cc1cnc2nc(N)nc(N)c2n1)c1ccccc1` [Compound 61], the Ki at bacterial DHFR (bDHFR) (setting [1]) turned out to be 0.013 µM. Moreover, the MIC with S. aureus is 2 µg/mL (≈ 6.46 µM).

`C[C@@H](c1ccc(F)c2ccccc12)N(C)c1ncc2c(N)nc(N)nc2n1` [Compound 38]: the Ki on bacterial DHFR (bDHFR) (setting [1]) was 0.06 µM. The MIC in the assay with S. aureus was 0.5 µg/mL (≈ 1.38 µM).

Source of the values: patent publication US20030176436A1, “Novel heterocyclic compounds as selective bacterial DHFR inhibitors and their uses thereof” (priority 2001, published 2003).
